According to patent US4855415A, “Glucosylmoranoline derivatives” (Nippon Shinyaku Co., Ltd., priority 1986, dated 1989):
≈ marks a conversion by molar mass, not a printed value.

What was measured:
sucrase = biological target: T1, sucrase (Oryctolagus cuniculus, UniProt P07768); assay: alpha-glucosidase inhibiting action in vitro: sucrase; format: biochemical, rabbit; settings: 50 mM sucrose, pH 7.0, 37° C., 30 minutes; for IC50: IC50, Sucrase, crudely purified enzyme from rabbit small intestine mucosa, average of three measurements (* four)
T1 construct: from tissue; host or cells: rabbit small intestine mucosa, crudely purified by a method of Takesue, 1969
T1 sequence (P07768 1008-1827 limits assumed): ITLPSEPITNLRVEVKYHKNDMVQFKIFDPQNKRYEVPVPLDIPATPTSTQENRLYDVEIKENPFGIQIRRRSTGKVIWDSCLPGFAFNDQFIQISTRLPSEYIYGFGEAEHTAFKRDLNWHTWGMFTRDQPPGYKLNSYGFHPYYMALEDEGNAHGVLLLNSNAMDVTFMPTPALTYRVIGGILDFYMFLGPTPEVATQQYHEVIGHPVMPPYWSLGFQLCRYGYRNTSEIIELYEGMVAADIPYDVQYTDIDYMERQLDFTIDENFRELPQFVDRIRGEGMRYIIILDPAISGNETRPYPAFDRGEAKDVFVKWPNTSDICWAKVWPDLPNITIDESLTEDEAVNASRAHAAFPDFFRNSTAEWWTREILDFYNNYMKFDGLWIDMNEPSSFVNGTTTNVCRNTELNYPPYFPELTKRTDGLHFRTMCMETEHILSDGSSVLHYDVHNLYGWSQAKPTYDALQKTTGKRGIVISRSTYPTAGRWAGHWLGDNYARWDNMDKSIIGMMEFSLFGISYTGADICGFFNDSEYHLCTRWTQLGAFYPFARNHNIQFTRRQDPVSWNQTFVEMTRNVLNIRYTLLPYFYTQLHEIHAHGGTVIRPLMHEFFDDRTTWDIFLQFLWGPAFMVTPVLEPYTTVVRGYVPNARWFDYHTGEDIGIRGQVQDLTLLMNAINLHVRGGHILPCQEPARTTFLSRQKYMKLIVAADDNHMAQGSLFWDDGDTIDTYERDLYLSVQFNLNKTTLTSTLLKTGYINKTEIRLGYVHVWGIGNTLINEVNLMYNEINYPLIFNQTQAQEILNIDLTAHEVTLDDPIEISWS
T1 sequence (P07768 2-1007 partner limits assumed): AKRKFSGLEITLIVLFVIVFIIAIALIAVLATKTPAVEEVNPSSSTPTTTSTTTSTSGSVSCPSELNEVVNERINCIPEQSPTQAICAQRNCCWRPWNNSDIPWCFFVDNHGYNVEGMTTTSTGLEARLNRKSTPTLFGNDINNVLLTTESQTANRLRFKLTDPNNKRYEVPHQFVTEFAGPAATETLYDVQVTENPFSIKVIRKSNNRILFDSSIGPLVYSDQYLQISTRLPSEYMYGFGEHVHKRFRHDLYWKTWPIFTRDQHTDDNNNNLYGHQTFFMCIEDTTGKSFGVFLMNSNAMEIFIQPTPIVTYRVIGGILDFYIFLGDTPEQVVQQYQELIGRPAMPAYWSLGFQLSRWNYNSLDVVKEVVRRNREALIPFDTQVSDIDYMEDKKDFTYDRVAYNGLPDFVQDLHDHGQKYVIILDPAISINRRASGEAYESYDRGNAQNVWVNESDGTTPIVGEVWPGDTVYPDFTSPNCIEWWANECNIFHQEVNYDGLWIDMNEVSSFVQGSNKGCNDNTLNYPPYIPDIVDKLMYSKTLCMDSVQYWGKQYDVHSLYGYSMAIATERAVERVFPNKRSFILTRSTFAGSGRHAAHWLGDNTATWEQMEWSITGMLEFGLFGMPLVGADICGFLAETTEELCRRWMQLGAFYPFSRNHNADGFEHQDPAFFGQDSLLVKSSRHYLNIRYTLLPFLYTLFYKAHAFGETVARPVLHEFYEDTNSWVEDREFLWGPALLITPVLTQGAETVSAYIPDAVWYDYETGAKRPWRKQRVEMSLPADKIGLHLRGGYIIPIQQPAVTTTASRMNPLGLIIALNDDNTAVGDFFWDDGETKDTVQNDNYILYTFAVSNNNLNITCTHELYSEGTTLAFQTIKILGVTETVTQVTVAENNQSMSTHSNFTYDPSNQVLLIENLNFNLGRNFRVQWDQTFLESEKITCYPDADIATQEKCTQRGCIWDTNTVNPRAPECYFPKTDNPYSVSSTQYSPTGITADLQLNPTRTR
Experimental: (§1) MEASUREMENT OF ALPHA-GLUCOSIDASE INHIBITING ACTION IN VITRO
(§2) The activity of the test compounds in inhibiting sucrase and maltase in vitro using a crudely purified enzyme preparation (purified in accordance with a method of Takesue, 1969) obtained from rabbit small intestine mocosa was carried out as follows.
(§3) To 40 microliters of enzyme solution diluted with 0.4M phosphate buffer (pH 7.0) are added 20 microliters of a solution of a test compound in the same buffer and 140 microliters of a solution of a substrate (50 mM sucrose or 50 mM maltose) in the same buffer and the mixture is allowed to react at 37° C. for 30 minutes. The reaction is then stopped by adding 400 microliters of 3N barium hydroxide and 400 microliters of 5% zinc sulfate solution. The amount of the enzyme that is reacted is determined as the amount of glucose contained in 200 microliters of the supernatant liquid of the reaction solution by adding 3 ml of glucoseoxidase reagent (Bioehringer-Mannheim) followed by reacting at ambient temperature for 30 minutes and measuring the absorbance at 420 nm. The concentration of the compound that provides 50% inhibition (IC50) of sucrase and maltase is calculated by expressing the values (as measured by the above method with five different concentrations) as an inhibitory rate (%) to the control.

maltase = assay: alpha-glucosidase inhibiting action in vitro: maltase; format: biochemical, rabbit; settings: 50 mM maltose, pH 7.0, 37° C., 30 minutes; for IC50, Maltase: crudely purified enzyme from rabbit small intestine mucosa, average of three measurements (* four); for inhibitory rate, Maltase: ** inhibitory rate at 100 μg/ml
Experimental: as §1, §2, §3

[1] = test system: increase in blood glucose level; assay: inhibitory action against increase in blood glucose level in rats (oral sucrose load); format: in vivo, SD-Strain rats; settings: per os, 1 ml/100 g of sucrose solution (2 g/10 ml) containing 30 mg test compound, 180 minutes after administration
Experimental: INHIBITORY ACTION AGAINST INCREASE IN BLOOD GLUCOSE LEVEL IN RATS
SD-Strain rats (5 weeks age; male; each group comprising 4 to 5 rats) were fasted overnight and then given 1 ml/100 g body weight of aqueous solution of sucrose (2 g/10 ml) containing 30 mg test compound per os through a stomach tube.
Blood was taken from the tail vein immediately before the administration and at 30, 60, 90, 120 and 180 minutes thereafter and blood glucose levels were measured by a glucose oxidase method (using the assay kit prepared by Boehringer Mannheim).
Based on the values obtained above, a graph was drawn using time as the abscissa and blood glucose level as the ordinate and the area (ΔAUC)under the time-blood glucose increase curve was determined.
A group of rats receiving only water and another group receiving only sucrose were designated as a basal group (group B) and a control group (group C), respectively. Then the inhibitory rate for an increase in ΔAUC 180 minutes after administration of the test compounds (group T) was calculated from the following expression. [formula]

mice = assay: oral toxicity in mice; format: in vivo; settings: orally, 5 g/kg
Experimental: The toxicity of the compounds (I) was tested by giving the compound of Example 1 orally to mice (5 g/kg) but there were no deaths.

CCCCCCCCCN1C[C@H](O)[C@@H](O)[C@H](O[C@H]2O[C@H](CO)[C@@H](O)[C@H](O)[C@H]2O)[C@H]1CO [Example 17, 4-O-alpha-D-Glucopyranosyl-N-nonylmoranoline hydrate]
IC50 (sucrase): 11.5 µM
IC50, Maltase (maltase): 77.9 µg/mL
Inhibitory Rate (%) for increase in ΔAUC of blood glucose [1]: 80.2%

C=CCN1C[C@H](O)[C@@H](O)[C@H](O[C@H]2O[C@H](CO)[C@@H](O)[C@H](O)[C@H]2O)[C@H]1CO [Example 13, 4-O-alpha-D-Glucopyranosyl-N-allylmoranoline p-toluenesulfonate]
IC50 (sucrase): 62.7 µM
IC50, Maltase (maltase): 262.1 µg/mL (≈ 717 µM)
Inhibitory Rate (%) for increase in ΔAUC of blood glucose [1]: 77.1%

COC(=O)CCCCN1C[C@H](O)[C@@H](O)[C@H](O[C@H]2O[C@H](CO)[C@@H](O)[C@H](O)[C@H]2O)[C@H]1CO [Example 18, 4-O-alpha-D-Glucopyranosyl-N-(4-methoxycarbonylbutyl)moranoline p-toluenesulfonate]
IC50 (sucrase): 45.1 µM
IC50, Maltase (maltase): 44.6 µg/mL (≈ 101 µM)
Inhibitory Rate (%) for increase in ΔAUC of blood glucose [1]: 47.9%

OC[C@@H]1[C@@H](O[C@H]2O[C@H](CO)[C@@H](O)[C@H](O)[C@H]2O)[C@H](O)[C@@H](O)CN1CCOc1ccccc1 [Example 9, 4-O-alpha-D-Glucopyranosyl-N-(beta-phenoxyethyl)moranoline]
IC50 (sucrase): 14.4 µM
IC50, Maltase (maltase): 223.6 µg/mL (≈ 502 µM)
Inhibitory Rate (%) for increase in ΔAUC of blood glucose [1]: 64.5%

COc1ccc(CN2C[C@H](O)[C@@H](O)[C@H](O[C@H]3O[C@H](CO)[C@@H](O)[C@H](O)[C@H]3O)[C@H]2CO)cc1 [Example 8, 4-O-alpha-D-Glucopyranosyl-N-(p-methoxybenzyl)moranoline]
IC50 (sucrase): 55.7 µM
IC50, Maltase (maltase): 173.0 µg/mL (≈ 388 µM)
Inhibitory Rate (%) for increase in ΔAUC of blood glucose [1]: 54.8%

O=C(O)c1ccc(CN2C[C@H](O)[C@@H](O)[C@H](O[C@H]3O[C@H](CO)[C@@H](O)[C@H](O)[C@H]3O)[C@H]2CO)cc1 [Example 12, 4-O-alpha-D-Glucopyranosyl-N-(4-carboxybenzyl)moranoline p-toluenesulfonate]
inhibition at 100 µg/mL (sucrase; ** inhibitory rate at 100 μg/ml): 21.9%
inhibitory rate, Maltase (maltase): 2.0%
Inhibitory Rate (%) for increase in ΔAUC of blood glucose [1]: 46.6%

OC[C@@H]1[C@@H](O[C@H]2O[C@H](CO)[C@@H](O)[C@H](O)[C@H]2O)[C@H](O)[C@@H](O)CN1CC(O)COc1ccccc1 (stereo partly drawn) [Example 22, 4-O-alpha-D-Glucopyranosyl-N-(2-hydroxy-3-phenoxypropyl)moranoline p-toluenesulfonate hydrate]
IC50 (sucrase): 33.9 µM
IC50, Maltase (maltase): 40.9 µg/mL
Inhibitory Rate (%) for increase in ΔAUC of blood glucose [1]: 48.4%

OC[C@@H]1[C@@H](O[C@H]2O[C@H](CO)[C@@H](O)[C@H](O)[C@H]2O)[C@H](O)[C@@H](O)CN1CCc1ccccc1 [Example 6, 4-O-alpha-D-Glucopyranosyl-N-(beta-phenylethyl)moranoline]
IC50 (sucrase): 71.7 µM
IC50, Maltase (maltase): 192.5 µg/mL (≈ 448 µM)
Inhibitory Rate (%) for increase in ΔAUC of blood glucose [1]: 69.9%

OC[C@@H]1[C@@H](O[C@H]2O[C@H](CO)[C@@H](O)[C@H](O)[C@H]2O)[C@H](O)[C@@H](O)CN1CCc1ccccc1 [Example 19, 4-O-alpha-D-Glucopyranosyl-N-phenethylmoranoline p-toluenesulfonate]
Inhibitory Rate (%) for increase in ΔAUC of blood glucose [1]: 54.0%

OC[C@@H]1[C@@H](O[C@H]2O[C@H](CO)[C@@H](O)[C@H](O)[C@H]2O)[C@H](O)[C@@H](O)CN1CCCCOc1ccccc1 [Example 14, 4-O-alpha-D-Glucopyranosyl-N-(4-phenoxybutyl)-moranoline]
IC50 (sucrase): 14.4 µM
IC50, Maltase (maltase): 168.6 µg/mL (≈ 356 µM)
Inhibitory Rate (%) for increase in ΔAUC of blood glucose [1]: 86.9%

CC(C)=CCN1C[C@H](O)[C@@H](O)[C@H](O[C@H]2O[C@H](CO)[C@@H](O)[C@H](O)[C@H]2O)[C@H]1CO [Example 3, 4-O-alpha-D-Glucopyranosyl-N-(3-methylcrotyl)moranoline p-toluensulfonate]
IC50 (sucrase): 43.7 µM
IC50, Maltase (maltase): 248.9 µg/mL (≈ 633 µM)
Inhibitory Rate (%) for increase in ΔAUC of blood glucose [1]: 73.2%

Cc1ccc(CN2C[C@H](O)[C@@H](O)[C@H](O[C@H]3O[C@H](CO)[C@@H](O)[C@H](O)[C@H]3O)[C@H]2CO)cc1 [Example 1, 4-O-alpha-D-Glucopyranosyl-N-(p-methylbenzyl)-moranoline]
IC50 (sucrase): 36.1 µM
inhibitory rate, Maltase (maltase): 23.5%
Inhibitory Rate (%) for increase in ΔAUC of blood glucose [1]: 68.6%
deaths (mice): no deaths

Cc1ccc(CN2C[C@H](O)[C@@H](O)[C@H](O[C@H]3O[C@H](CO)[C@@H](O)[C@H](O)[C@H]3O)[C@H]2CO)cc1 [Example 25, 4-O-alpha-D-Glucopyranosyl-N-(p-methylbenzyl)moranoline p-toluenesulfonate]
IC50 (sucrase): 32.6 µM
IC50, Maltase (maltase): 69.2 µg/mL (≈ 161 µM)
Inhibitory Rate (%) for increase in ΔAUC of blood glucose [1]: 84.4%

OC[C@@H]1[C@@H](O[C@H]2O[C@H](CO)[C@@H](O)[C@H](O)[C@H]2O)[C@H](O)[C@@H](O)CN1Cc1ccc(Br)cc1 [Example 4, 4-O-alpha-D-Glucopyranosyl-N-(p-bromobenzyl)moranoline]
IC50 (sucrase): 20.2 µM
IC50, Maltase (maltase): 34.2 µg/mL (≈ 69.2 µM)

CCCCCCN1C[C@H](O)[C@@H](O)[C@H](O[C@H]2O[C@H](CO)[C@@H](O)[C@H](O)[C@H]2O)[C@H]1CO [Example 5, 4-O-alpha-D-Glucopyranosyl-N-hexylmoranoline p-toluenesulfonate]
Inhibitory Rate (%) for increase in ΔAUC of blood glucose [1]: 94.8%

OC[C@@H]1[C@@H](O[C@H]2O[C@H](CO)[C@@H](O)[C@H](O)[C@H]2O)[C@H](O)[C@@H](O)CN1CC=Cc1ccccc1 [Example 20, 4-O-alpha-D-Glucopyranosyl-N-cinnamylmoranoline p-toluenesulfonate]
IC50 (sucrase): 22 µM
IC50, Maltase (maltase): 284.9 µg/mL (≈ 645 µM)
Inhibitory Rate (%) for increase in ΔAUC of blood glucose [1]: 76.8%
